{"source": "patent US20240024307A1", "about": "“PHARMACEUTICAL COMBINATION OF A CORTICOSTEROID AND AN ANTIHISTAMINE FOR THE TREATMENT AND CONTROL OF THE INFLAMMATORY COMPONENT OF ALLERGIC PROCESSES” (priority 2020, published 2024)", "key": {"[1]": {"test": "Comparative bioavailability study, 5 mg desloratadine and 0.25 mg betamethasone alone or in combination, single dose, healthy subjects, fasting", "conditions": "analyte desloratadine, 5 mg single dose", "description": "The study design was crossover, 3×6×3 open, prospective, and longitudinal, truncated to single dose.\nThree treatments, three periods, six sequences with an elimination period of 14 days and with a total of 24 healthy subjects of both genders, in fasting conditions."}, "[2]": {"conditions": "40° C. and 75% RH; alone or in combination with various excipients; cited from earlier work"}}, "data": [{"compound": "Clc1ccc2c(c1)CCc1cccnc1C2=C1CCNCC1", "note": "[Desloratadine, desloratadine]", "values": [{"measurement": "Elimination constant Ke", "setting": "[1]", "value": "0.0408 ± 0.009", "unit": "h⁻¹"}, {"measurement": "colour stability", "setting": "[2]", "value": "exhibits color changes"}]}]}
